Legend:
[1] = target: rat EP1 receptor (Rattus norvegicus (Rat), UniProt P70597); assay: Test for confirmation of EP1 receptor antagonism: inhibition of the prostaglandin E2-induced increase in intracellular calcium concentration in rat EP1 receptor-expressing COS-1 cells; format: cell-based; details: Method A: Fluo-4 NW Calcium Assay Kit, FlexStation; prostaglandin E2 10 nM; rat EP1 receptor-expressing COS-1 cells
Procedure: (1) Preparation of Rat EP1 Expression Vector
Using Rat Kidney BD Marathon-Ready cDNA (Nippon Becton Dickinson Company, Ltd.) as a template, a forward primer shown in SEQ ID NO. 1, and a reverse primer shown in SEQ ID NO. 2, a first run of PCR was carried out using KOD-Plus-Ver 2.0 (Toyobo Co., Ltd.). Further, using this amplification product as a template, a forward primer shown in SEQ ID NO. 3, and a reverse primer shown in SEQ ID NO. 4, a second run of PCR was carried out in the same manner. The amplification product obtained by the second run of PCR was incorporated into a vector (pcDNA3.1 D/V5-His-TOPO (registered trademark), Invitrogen Japan K. K.). By a conventional method, the vector containing this amplification product was introduced to E. coli (One Shot TOP10 Competent Cells, Invitrogen Corporation) to transform. This transformed E. coli was cultured in an LB agar medium for one day. After the culture, colonies were selected and cultured in an LB liquid medium containing 50 μg/mL of ampicillin. After the culture, the vector was purified using a QIAprep Spin Miniprep Kit (Qiagen K. K.). The base sequence of the insertion site of this vector (SEQ ID NO. 5) was compared with the rat EP1 base sequence (Ptger1) registered as an accession number NM_013100 in well-known database (NCBI), and as a result, they all matched except for a single base. Further, the amino acid sequence translated by the base sequence completely matched the amino acid sequence of the rat EP1 receptor registered as an NCBI accession number NP_037232. Therefore, it was confirmed that the cloned gene sequence was a base sequence of the rat EP1 receptor and the obtained amino acid sequence was that of the rat EP1 receptor. The pcDNA3.1 D/V5-His-TOPO (registered trademark) to which the nucleic acid shown in SEQ ID NO. 5 had been inserted was taken as a rat EP1-expressing vector.
(2) Preparation of Rat EP1 Receptor-Expressing Cells
COS-1 cells (Dainippon Sumitomo Pharma Co., Ltd.) were cultured until it reached confluence in an incubator at 37° C. under a 5% CO2 gas condition, using a D-MEM liquid medium (high glucose and L-glutamine contained, Invitrogen Corporation) to which a penicillin-streptomycin solution (Invitrogen Corporation, final concentration: 100 U/mL as benzylpenicillin; 100 μg/mL as streptomycin) as an antibiotic, MEM nonessential amino acids (Invitrogen Corporation, final Concentration: 0.1 mM), and fetal calf serum (Sanko Junyaku Co., Ltd., final concentration: 10%) were added.
The cells that had reached confluence were stripped with 0.05% trypsin/0.53 mM EDTA 4Na (Invitrogen Japan K. K.) and resuspended in the liquid medium. The resuspended cells were diluted and cultured in the liquid medium at a spread ratio from 1:4 to 1:8.
The cells that had reached confluence were stripped with 0.05% trypsin/0.53 mM EDTA.4Na, and resuspended in a D-MEM liquid medium (high glucose and L-glutamine contained, Invitrogen Corporation) to which an MEM nonessential amino acid (final concentration: 0.1 mM) and fetal calf serum (final concentration: 10%) were added. In each well of a Poly D-lysine-coated 96-well microplate (BD BioCoat (registered trademark), Nippon Becton Dickinson Company, Ltd.), this resuspended cell suspension culture was prepared to be 5×10^4 cells/well in 100 μL of the liquid medium, and seeded thereon. After seeding, the cells were cultured in an incubator at 37° C. under a 5% CO2 gas condition. At a point when the cells for introduction of a rat EP1-expressing vector were adhered (about 2 hours after seeding), introduction of the rat EP1-expressing vector was carried out in the following order.
For introduction of the rat EP1-expressing vector, Lipofectamine 2000 (Invitrogen Japan K. K.) was used. […]

[2] = system: Female SD rats; assay: Inhibitory effect of compound on sulprostone-induced bladder contraction; format: in vivo, rat; details: sulprostone 0.3 mg/kg subcutaneously, urethane-anesthetized female SD rats; for Bladder Contraction Inhibition Rate (%) 15 Minutes: 15 minutes after test agent 1.0 mg/kg intravenously; for Bladder Contraction Inhibition Rate (%) 60 Minutes: 60 minutes after test agent 1.0 mg/kg intravenously
Procedure: Female SD rats were used. Under urethane anesthesia (1.25 g/kg, administered subcutaneously), a tracheal cannula (Size 8, HIBIKI) and a femoral vein cannula for administration (23 G needle-equipped PE50) were inserted thereinto. The bladder cannula (PE50) was inserted from the bladder apex. The bladder cannula was connected to a three-way stopcock, and then, one was connected to a pressure transducer and the other was connected to a syringe filled with saline. Saline was injected to the bladder at an injection rate of 3.6 mL/hour and the bladder contraction pressure was recorded at the time of injection with a recorder (RECTI-HORITZ-8K, NEC Corporation). After 10 minutes from stabilization of the bladder contraction pressure during urination, sulprostone was administered subcutaneously (0.3 mg/kg). Then, at the time point when the bladder contraction pressure became constant, a test agent was administered intravenously (1.0 mg/kg). An average bladder contraction pressure during the 10 minutes period before administration of sulprostone was taken as a baseline (0%). Further, an average bladder contraction pressure during the 10 minutes period before administration of the test agent was taken as a maximum bladder contraction pressure (100%). The average bladder contraction pressures were measured during 5 minutes before and after at 15 minutes and 60 minutes from administration of the test agent. The ratio of this measured value to the maximum bladder contraction pressure was calculated by the following equation and taken as an average bladder contraction rate after administration of the test agent: (Average Bladder Contraction Rate after Administration of Test Agent (%))=(Average Bladder Contraction Pressure after Administration of Test Agent)/(Maximum Bladder Contraction Pressure). In addition, the difference between the maximum bladder contraction rate (100%) and the average bladder contraction rate (%) after administration of the test agent was calculated by the following equation and taken as a bladder contraction inhibition rate of the test agent: (Bladder Contraction Inhibition Rate)=100%−(Average Bladder Contraction Rate after Administration of Test Agent (%)).

Chain of rat EP1 receptor (P70597 whole entry): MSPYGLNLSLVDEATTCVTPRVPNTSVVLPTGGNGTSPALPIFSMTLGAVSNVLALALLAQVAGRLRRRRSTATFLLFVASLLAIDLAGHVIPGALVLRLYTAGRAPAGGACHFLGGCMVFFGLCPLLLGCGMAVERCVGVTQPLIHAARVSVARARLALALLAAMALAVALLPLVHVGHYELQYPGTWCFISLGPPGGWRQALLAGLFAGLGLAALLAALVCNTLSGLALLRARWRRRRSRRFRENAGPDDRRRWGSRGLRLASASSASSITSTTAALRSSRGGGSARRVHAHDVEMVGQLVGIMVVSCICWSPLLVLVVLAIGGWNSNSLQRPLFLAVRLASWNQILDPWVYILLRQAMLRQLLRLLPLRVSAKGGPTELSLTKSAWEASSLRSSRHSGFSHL

IC50 [1] [nM]	Structure (SMILES)	Bladder Contraction Inhibition Rate (%) 15 Minutes [2] [%]	Bladder Contraction Inhibition Rate (%) 60 Minutes [2] [%]
13	COc1ccc2c(c1)cc(-c1ccccc1)n2Cc1cccc(C(=O)O)n1 [Example 9-21, 6-(5-methoxy-2-phenylindol-1-ylmethyl)pyridine-2-carboxylic acid]	94.5	82.8
	COc1cc2cc(-c3ccccc3)n(Cc3cccc(C(=O)O)n3)c2cc1F [Example 16-15]	85.0	54.9

— patent US8680120B2, “Indole derivative or pharmaceutically acceptable salt thereof” (Kissei Pharmaceutical Co., Ltd., priority 2009, dated 2014)
